Consider 18 molecules from patent US20220204476A1, “RNA VIRUS INHIBITOR COMPOUNDS AND USES THEREOF” (The Governors of the University of Alberta, priority 2020, published 2022).

Data set [1] is described as follows: Cytotoxicity, CellTiter-Glo luminescent cell viability assay. To be noted: human (A549) and green monkey (Vero E6). A general note: Cellular ATP, detected with luciferase, serves as a proxy for viable cell number.
The target in another data set is SARS-CoV-2 3CLP (Severe acute respiratory syndrome coronavirus 2, UniProt P0DTD1). The experiment in a line: SARS-CoV-2 3CLP inhibition, FRET-based cleavage assay. Format: biochemical. The following applies: 80 nM SARS-CoV-2 3CLP, 100 μM substrate, 37° C., 10 min incubation, pH 7.8; read-out: 3CL Protease IC50.
The next data set deals with SARS-CoV-2. The experiment in a line: SARS-CoV-2 in vitro plaque reduction assay in Vero E6 cells. To be noted: Severe acute respiratory syndrome coronavirus 2, Vero C1008, MOI 0.0001 pfu/cell, plaques counted after 48 h, >5 μM = did not reduce plaque numbers by half at 10 μM, read-out: SARS-CoV-2 Antiviral EC50. Format: cell-based. A general note: Plaques are areas of infected cells; plaque reduction assays count them against a control.

Turning to `COc1cccc2[nH]c(C(=O)N[C@@H](CC(C)C)C(=O)N[C@@H](C[C@@H]3CCCNC3=O)C(=O)COC(=O)c3c(Cl)cccc3Cl)cc12` [Compound 5, (3S)-3-{[N-(4-methoxy-1H-indole-2-carbonyl)-L-leucyl]amino}-2-oxo-4-[(3S)-2-oxopiperidin-3-yl]butyl 2,6-dichlorobenzoate], the CC50 (usually the concentration at which the toxic effect on the cells reaches its halfway point) at 24 h in data set [1] was above 200 µM. Further, the IC50 (as a rule, the point on the concentration scale where inhibition reaches its midpoint) at SARS-CoV-2 3CLP is 0.0064 µM.
The molecule `COc1cc(Cl)cc2[nH]c(C(=O)N[C@@H](CC(C)(C)C)C(=O)N[C@H](C#N)C[C@@H]3CCCNC3=O)cc12` [Compound 35, 6-chloro-N-[(2S)-1-({(1S)-1-cyano-2-[(3S)-2-oxopiperidin-3-yl]ethyl}amino)-4,4-dimethyl-1-oxopentan-2-yl]-4-methoxy-1H-indole-2-carboxamide] came in with a CC50 at 24 h in data set [1] above 200 µM. For the same molecule, the EC50 – broadly, the midpoint of the concentration-response curve – in the data set on SARS-CoV-2 turned out to be 1.5 µM.
The like results for `COc1cccc2[nH]c(C(=O)N[C@@H](CC(C)(C)C)C(=O)N[C@H](C#N)C[C@@H]3CCCNC3=O)cc12` [Compound 70, N-[(2S)-1-({(1S)-1-cyano-2-[(3S)-2-oxopiperidin-3-yl]ethyl}amino)-4,4-dimethyl-1-oxopentan-2-yl]-4-methoxy-1H-indole-2-carboxamide] were, in that order, above 200 µM and above 5 µM.
Take `CC(C)C[C@H](NC(=O)[C@@H]1C[C@H]1c1ccccc1)C(=O)N[C@H](C#N)C[C@@H]1CCCNC1=O` [Compound 106, N-{(1S)-1-cyano-2-[(3S)-2-oxopiperidin-3-yl]ethyl}-N^2-[(1R,2R)-2-phenylcyclopropane-1-carbonyl]-L-leucinamide]: in the data set with SARS-CoV-2, the EC50 was above 5 µM. For the same molecule, the IC50 at SARS-CoV-2 3CLP worked out at 0.069 µM.
The like results for `COc1cccc2[nH]c(C(=O)N[C@@H](CC(C)C)C(=O)N[C@@H](C[C@@H]3CCNC3=O)C(=O)COC(=O)C(C)(C)C(F)(F)F)cc12` [Compound 27, (3S)-3-{[N-(4-methoxy-1H-indole-2-carbonyl)-L-leucyl]amino}-2-oxo-4-[(3S)-2-oxopyrrolidin-3-yl]butyl 3,3,3-trifluoro-2,2-dimethylpropanoate] were, in that order, above 5 µM and 0.029 µM.
The like results for `COc1cccc2[nH]c(C(=O)N[C@@H](CC(C)C)C(=O)N[C@@H](C[C@@H]3CCCNC3=O)C(=O)COC(=O)c3sc(C)nc3C(F)(F)F)cc12` [Compound 21, (3S)-3-{[N-(4-methoxy-1H-indole-2-carbonyl)-L-leucyl]amino}-2-oxo-4-[(3S)-2-oxopiperidin-3-yl]butyl 2-methyl-4-(trifluoromethyl)-1,3-thiazole-5-carboxylate] were, in that order, above 5 µM and 0.018 µM.
The matching figures for `COc1cc(Cl)cc2[nH]c(C(=O)N[C@@H](CC(C)C)C(=O)N[C@H](C#N)C[C@@H]3CCCNC3=O)cc12` [Compound 68, 6-chloro-N-[(2S)-1-({(1S)-1-cyano-2-[(3S)-2-oxopiperidin-3-yl]ethyl}amino)-4-methyl-1-oxopentan-2-yl]-4-methoxy-1H-indole-2-carboxamide]: 2.2 µM and 0.0091 µM.
Consider `CC(C)(C)C[C@H](NC(=O)OCC1c2ccccc2-c2ccccc21)C(=O)N[C@H](C#N)C[C@@H]1CCCNC1=O` [Compound 86, N-{(1S)-1-cyano-2-[(3S)-2-oxopiperidin-3-yl]ethyl}-N^2-{[(9H-fluoren-9-yl)methoxy]carbonyl}-4-methyl-L-leucinamide], for which the EC50 in the data set on SARS-CoV-2 is 4.3 µM. Also, at SARS-CoV-2 3CLP, the IC50 came to 0.11 µM.
The like results for `CC(C)C[C@H](NCC1CC1)C(=O)N[C@H](C#N)C[C@@H]1CCCNC1=O` [Compound 77, N-{(1S)-1-cyano-2-[(3S)-2-oxopiperidin-3-yl]ethyl}-N^2-(cyclopropylmethyl)-L-leucinamide] were, in that order, above 5 µM and 17 µM.
For `CC(C)C[C@H](NC[C@@H]1CCCO1)C(=O)N[C@H](C#N)C[C@@H]1CCCNC1=O` [Compound 92, N-{(1S)-1-cyano-2-[(3S)-2-oxopiperidin-3-yl]ethyl}-N^2-{[(2S)-oxolan-2-yl]methyl}-L-leucinamide], in the data set on SARS-CoV-2, the EC50 is above 5 µM. The IC50 on SARS-CoV-2 3CLP is 104 µM.
As to `CC(C)C[C@H](NC(=O)c1nc(-c2ccccc2)c[nH]1)C(=O)N[C@H](C#N)C[C@@H]1CCCNC1=O` [Compound 75, N-{(1S)-1-cyano-2-[(3S)-2-oxopiperidin-3-yl]ethyl}-N^2-(4-phenyl-1H-imidazole-2-carbonyl)-L-leucinamide], the EC50 with SARS-CoV-2 is above 5 µM. The IC50 on SARS-CoV-2 3CLP worked out at 0.16 µM.
The matching figures for `CC(C)C[C@H](NCC1CCCCC1)C(=O)N[C@H](C#N)C[C@@H]1CCCNC1=O` [Compound 95, N-{(1S)-1-cyano-2-[(3S)-2-oxopiperidin-3-yl]ethyl}-N^2-(cyclohexylmethyl)-L-leucinamide]: above 5 µM and 97 µM.
In the case of `COc1cccc2[nH]c(C(=O)N[C@@H](CC(C)C)C(=O)N[C@@H](C[C@@H]3CCCNC3=O)C(=O)COC(=O)C(C)(C)C#N)cc12` [Compound 14, (3S)-3-{[N-(4-methoxy-1H-indole-2-carbonyl)-L-leucyl]amino}-2-oxo-4-[(3S)-2-oxopiperidin-3-yl]butyl 2-cyano-2-methylpropanoate], the EC50 in the data set with SARS-CoV-2 was above 5 µM. In addition, the IC50 at SARS-CoV-2 3CLP was 0.022 µM.
The matching figures for `COc1cccc2[nH]c(C(=O)N[C@@H](CC(C)C)C(=O)N[C@@H](C[C@@H]3CCCNC3=O)C(=O)COC(=O)c3cnc(C)cc3C)cc12` [Compound 22, (3S)-3-{[N-(4-methoxy-1H-indole-2-carbonyl)-L-leucyl]amino}-2-oxo-4-[(3S)-2-oxopiperidin-3-yl]butyl 4,6-dimethylpyridine-3-carboxylate]: above 5 µM and 0.017 µM.
For `COc1cccc2[nH]c(C(=O)N[C@@H](CC(C)C)C(=O)N[C@@H](C[C@@H]3CCCNC3=O)C(=O)COC(=O)c3cccnc3)cc12` [Compound 4, (3S)-3-{[N-(4-methoxy-1H-indole-2-carbonyl)-L-leucyl]amino}-2-oxo-4-[(3S)-2-oxopiperidin-3-yl]butyl pyridine-3-carboxylate], in the data set on SARS-CoV-2, the EC50 was above 5 µM. The IC50 on SARS-CoV-2 3CLP came to 0.004 µM.
Consider `Cc1ccc(C(=O)N[C@@H](CC(C)C)C(=O)N[C@H](C#N)C[C@@H]2CCCNC2=O)cn1` [Compound 81, N-{(1S)-1-cyano-2-[(3S)-2-oxopiperidin-3-yl]ethyl}-N^2-(6-methylpyridine-3-carbonyl)-L-leucinamide], for which the EC50 with SARS-CoV-2 is above 5 µM. Also, the IC50 at SARS-CoV-2 3CLP came to 0.62 µM.
Regarding `CC(C)C[C@H](NCc1ccc[nH]c1=O)C(=O)N[C@H](C#N)C[C@@H]1CCCNC1=O` [Compound 78, N-{(1S)-1-cyano-2-[(3S)-2-oxopiperidin-3-yl]ethyl}-N^2-[(2-oxo-1,2-dihydropyridin-3-yl)methyl]-L-leucinamide], the EC50 in the data set with SARS-CoV-2 was above 5 µM. In addition, at SARS-CoV-2 3CLP, the half-inhibitory concentration (IC50) was found to be 47 µM.
The matching figures for `CC(C)C[C@H](NS(=O)(=O)N1CCCCC1)C(=O)N[C@H](C#N)C[C@@H]1CCCNC1=O` [Compound 83, N-{(1S)-1-cyano-2-[(3S)-2-oxopiperidin-3-yl]ethyl}-N^2-(piperidine-1-sulfonyl)-L-leucinamide]: above 5 µM and 4.5 µM.
